Test results from patent publication US7767649B2, “Amino acid conjugates providing for sustained systemic concentrations of GABA analogues” (XenoPort, Inc., priority 2002, dated 2010).

Tested on: PEPT2
Assay: Electrogenic transport in Xenopus oocytes expressing PEPT2 (two-electrode electrophysiology)
Format: cell-based
Settings: compound at 1 mM, normalized to saturating glycyl-sarcosine (1 mM)
Protocol: Rat and human PEPT1 and PEPT2 expressing CHO cell lines were prepared as described in PCT Application WO01/20331. Gabapentin-containing dipeptides were evaluated for interaction with the peptide transporters using a radiolabeled substrate uptake assay in a competitive inhibition format, as described in PCT Application WO01/20331. Transport-induced currents were also measured in Xenopus oocytes transfected with rat and human PEPT1 and PEPT2.
Rat and human PEPT1 and PEPT2 transporter cDNAs were subcloned into a modified pGEM plasmid that contains 5′ and 3′ untranslated sequences from the Xenopus β-actin gene. These sequences increase RNA stability and protein expression. Plasmid cDNA was linearized and used as template for in vitro transcription (Epicentre Technologies transcription kit, 4:1 methylated:non-methylated GTP).
Xenopus laevis frogs were anesthetized by immersion in Tricaine ([…] in deionized water) for 15 min. Oocytes were removed and digested in frog ringer solution (90 mM NaCl, 2 mM KCl, 1 mM MgCl2, 10 mM NaHEPES, pH 7.45, no CaCl2) with 1 mg/mL collagenase (Worthington Type 3) for 80-100 min with shaking. […]
Transport currents were measured 2-14 days after injection, using a standard two-electrode electrophysiology set-up (Geneclamp 500 amplifier, Digidata 1320/PCLAMP software and ADInstruments hardware and software were used for signal acquisition). […]

C[C@H](NC(=O)[C@@H](N)CNC(=O)CC1(CN)CCCCC1)C(=O)O [N-β-(Gabapentinyl)-L-Diaminopropionyl-L-Alanine]
induced current as % of Imax: 45%
